ChEMBL document CHEMBL1142685, “Novel anticholinesterases based on the molecular skeletons of furobenzofuran and methanobenzodioxepine” (J Med Chem, 2005)

Tests used:
[1] = biological target: Cholinesterase (Homo sapiens, UniProt P06276)
Description: Inhibitory concentration against human plasma Butyrylcholinesterase

[2] = biological target: Acetylcholinesterase (Homo sapiens, UniProt P22303)
Description: Inhibitory concentration against human erythrocyte Acetylcholinesterase

[3] = test system: SK-N-SH; test: Reduction in Amyloid-beta precursor protein levels in Human SK-N-SH cells at 10 uM; assay type: functional

Chain of Acetylcholinesterase (P22303 whole entry): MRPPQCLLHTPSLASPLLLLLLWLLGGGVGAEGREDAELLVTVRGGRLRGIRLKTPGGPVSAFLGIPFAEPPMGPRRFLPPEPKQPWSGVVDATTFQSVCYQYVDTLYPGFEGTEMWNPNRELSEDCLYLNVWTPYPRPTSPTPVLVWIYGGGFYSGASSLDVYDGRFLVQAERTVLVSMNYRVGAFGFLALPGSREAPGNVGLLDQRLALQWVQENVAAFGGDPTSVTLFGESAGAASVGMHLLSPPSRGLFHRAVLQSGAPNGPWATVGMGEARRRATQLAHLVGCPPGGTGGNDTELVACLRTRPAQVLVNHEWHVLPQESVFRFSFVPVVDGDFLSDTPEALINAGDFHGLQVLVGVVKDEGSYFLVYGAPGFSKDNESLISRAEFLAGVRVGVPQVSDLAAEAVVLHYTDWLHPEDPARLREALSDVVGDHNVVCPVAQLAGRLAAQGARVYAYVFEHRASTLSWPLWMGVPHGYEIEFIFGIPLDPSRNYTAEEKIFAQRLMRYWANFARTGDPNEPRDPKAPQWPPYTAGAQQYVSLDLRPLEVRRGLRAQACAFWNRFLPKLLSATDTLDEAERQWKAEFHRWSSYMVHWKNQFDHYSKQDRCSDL
Chain of Cholinesterase (P06276 whole entry): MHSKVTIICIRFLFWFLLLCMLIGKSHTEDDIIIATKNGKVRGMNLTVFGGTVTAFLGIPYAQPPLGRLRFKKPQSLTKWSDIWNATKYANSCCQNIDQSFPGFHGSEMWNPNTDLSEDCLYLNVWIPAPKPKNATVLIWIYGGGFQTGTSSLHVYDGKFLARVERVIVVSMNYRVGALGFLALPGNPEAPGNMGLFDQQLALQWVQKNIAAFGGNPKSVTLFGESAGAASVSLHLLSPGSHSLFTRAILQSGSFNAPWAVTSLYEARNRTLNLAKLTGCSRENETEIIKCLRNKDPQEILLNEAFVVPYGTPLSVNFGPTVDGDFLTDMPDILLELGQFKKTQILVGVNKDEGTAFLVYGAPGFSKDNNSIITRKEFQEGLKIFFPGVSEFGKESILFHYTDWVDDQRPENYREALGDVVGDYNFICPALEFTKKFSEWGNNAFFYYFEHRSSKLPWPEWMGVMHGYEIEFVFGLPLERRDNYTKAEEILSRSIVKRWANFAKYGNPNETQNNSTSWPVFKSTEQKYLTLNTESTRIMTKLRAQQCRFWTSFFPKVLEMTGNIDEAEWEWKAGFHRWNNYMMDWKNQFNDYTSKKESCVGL

Compound	IC50 [1] [nM]	IC50 [2] [nM]	Reduction [3] [%]
CC(C)c1ccc(NC(=O)Oc2ccc3c(c2)[C@]2(C)CCOC2N3C)cc1 (some centres not stated)	17	3860	–
Cc1ccccc1NC(=O)Oc1ccc2c(c1)C1(C)COC(C1)O2 (configuration not stated)	> 30000	56	–
Cc1ccccc1NC(=O)Oc1ccc2c(c1)C1(C)CCOC1O2 (configuration not stated)	> 30000	–	–
CC(C)c1ccc(NC(=O)Oc2ccc3c(c2)C2(C)COC(C2)O3)cc1 (configuration not stated)	22	4300	–
CC(C)c1ccc(NC(=O)Oc2ccc3c(c2)C2(C)CCOC2O3)cc1 (configuration not stated)	27	–	–
CCNC(=O)Oc1ccc2c(c1)[C@]1(C)CCN(C)C1N2C (some centres not stated)	4	94	–
Cc1ccccc1NC(=O)Oc1ccc2c(c1)[C@]1(C)CCOC1N2C (some centres not stated)	1560	13	–
CNC(=O)Oc1ccc2c(c1)[C@]1(C)CCOC1N2C (some centres not stated)	4	27	–
CCNC(=O)Oc1ccc2c(c1)C1(C)COC(C1)O2 (configuration not stated)	24	–	–
CCNC(=O)Oc1ccc2c(c1)[C@]1(C)CCOC1N2C (some centres not stated)	2	82	–
CCNC(=O)Oc1ccc2c(c1)C1(C)CCOC1O2 (configuration not stated)	6	360	–
CCc1ccccc1NC(=O)Oc1ccc2c(c1)[C@]1(C)CC[N+](C)([O-])[C@@H]1N2C (some centres not stated)	1700	125	–
CN1CC[C@@]2(C)c3cc(OC(=O)Nc4ccccc4)ccc3N(C)[C@@H]12 [PHENSERINE]	–	–	50
